One block for each molecule: values may come before it.
How the values were obtained:
[1] = tested on: gastric lipase; assay: Gastric lipolysis of triolein emulsions stabilized by phospholipids, with purified gastric lipases or gastric juices; type: biochemical, human
Excerpt: (§1) The compounds have been tested in vitro in different experimental conditions for their ability to promote the action of three major lipolytic enzymes of the digestive tract, i.e., gastric lipase, colipase-dependent pancreatic lipase, bile salt stimulated lipase (BSSL), and their isoforms and variants.
(§2) Different lipidic emulsions have been prepared by sonication of a mixture of triolein (TO) (98.7%), cholesterol (0.5%) and phospholipids (0.8%).
(§3) The lipolysis tests have been carried out in vitro in conditions that mimic the physiology of the human digestive tract, either healthy or with pancreatic insufficiency (PI).
Gastric lipolysis in the presence of gastric lipase has been carried out with purified lipases or gastric juices from different subjects at pH 5.40, at 37° C. for 60 minutes with a gastric lipase (U/mL)/lipids (micromoles of TO) ratio of 2.
(§4) Lipolysis by the three main digestive tract lipases has also been tested in more complex conditions, i.e. in the presence of lipidic emulsions with a mixture of proteins plus lactose added in proportions that are found in normal or medically assisted nutrition.

[2] = tested on: bile salt stimulated lipase (BSSL); assay: Intestinal lipolysis of triolein emulsions by bile salt stimulated lipase; type: biochemical, human
Excerpt: as §1, §2, §3
[…] Several variants of BSSL have been tested, numbered 1 to 8.
as §4

[3] = target: T1, colipase dependent pancreatic lipase (Sus scrofa, UniProt P00591); assay: Intestinal lipolysis of triolein emulsions by colipase dependent pancreatic lipase or pancreatine; type: biochemical, pig; details: for yield of pancreatic lipolysis (percentage of hydrolysis) compared with PC P/O emulsion: normal physiological conditions, two forms of pig pancreatic lipase (pure lipase or powder of pancreas), FIG. 3
T1 sequence (P00591 1-450): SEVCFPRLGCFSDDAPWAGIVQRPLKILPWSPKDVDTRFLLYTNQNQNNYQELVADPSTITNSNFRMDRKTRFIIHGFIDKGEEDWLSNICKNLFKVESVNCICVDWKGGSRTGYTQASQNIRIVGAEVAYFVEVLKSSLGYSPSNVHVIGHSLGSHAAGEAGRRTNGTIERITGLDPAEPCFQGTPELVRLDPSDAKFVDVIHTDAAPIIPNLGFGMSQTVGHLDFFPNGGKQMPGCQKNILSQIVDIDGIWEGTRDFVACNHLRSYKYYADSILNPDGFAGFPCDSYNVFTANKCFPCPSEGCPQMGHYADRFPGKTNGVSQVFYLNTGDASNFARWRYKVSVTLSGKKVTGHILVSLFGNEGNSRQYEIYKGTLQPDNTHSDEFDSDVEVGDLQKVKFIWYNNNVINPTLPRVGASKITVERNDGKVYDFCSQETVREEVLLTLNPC
T1 sequence (P02703 23-112 partner): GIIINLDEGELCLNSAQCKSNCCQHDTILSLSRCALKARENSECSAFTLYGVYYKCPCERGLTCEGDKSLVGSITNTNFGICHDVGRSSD
Excerpt: as §1, §2, §3
Intestinal lipolysis in the presence of colipase dependent pancreatic lipase (lipase/colipase 1/1 molar ratio) or of pig pancreatic extract (pancreatine) was conducted at pH […] at 37° C. for 15 minutes, with a pancreatic lipase (U/mL)/micromoles of TO ratio of 20, and in the presence of pig bile in sufficient quantity for a bile salt concentration of 2 or 8 mM.
as §4

[4] = cited from earlier work
[5] = gastric juices of subject, pH 5.40, 37° C., 60 minutes, FIG. 1
[6] = gastric juices of different subjects, irrespective of the origin of gastric juice, FIG. 2
[7] = conditions of pancreatic insufficiency, mixture of pure bile salts, FIG. 6

- yield of gastric lipolysis (percentage of hydrolysis) compared with the control CT emulsion [1, 5]: significantly higher
Molecule: CCCCCCCC/C=C\CCCCCCCC(=O)OC[C@@H](O)COP(=O)(O)O [LPAo, oleyl lysophosphatidic acid]

- yield of gastric lipolysis (percentage of hydrolysis) compared with the control CT emulsion [1, 6]: significantly higher
- yield of gastric lipolysis (percentage of hydrolysis) compared with the control CT emulsion [1, 5]: significantly higher
- yield of lipolysis by BSSL (percentage of hydrolysis) compared with PC P/O emulsion [2, 7]: significantly higher
- yield of lipolysis by BSSL (percentage of hydrolysis) compared with PC P/O emulsion ([2]; normal conditions, FIG. 4): significantly higher
Molecule: egg-derived lysophosphatidylcholine [LPCO]

- yield of gastric lipolysis (percentage of hydrolysis) compared with PC P/O and complex PC P/O ([1]; different human gastric juices, simple emulsions and complex emulsions (lactose and milk proteins), FIG. 7): significantly higher
- yield of gastric lipolysis (percentage of hydrolysis) compared with the control CT emulsion [1, 6]: significantly higher
- yield of gastric lipolysis (percentage of hydrolysis) compared with the control CT emulsion [1, 5]: significantly higher
- activator effect in the presence of a mixture of protein plus lactose ([1]; gastric lipase, complex environment compared with simple emulsion): identical or even maximized
- quantity at which the activator effect seems optimal ([1]; gastric lipolysis of LHO/LPI emulsions, dose dependent): 0.8 % of total lipids
- effect on gastric lipase degraded at its N-terminal end (yield of gastric lipolysis vs CT and/or PC P/O) ([1]; purified gastric lipases or juices of different subjects with different degrees of N-terminal degradation, FIG. 10): reactivates degraded gastric lipase
- yield of pancreatic lipolysis (percentage of hydrolysis) compared with PC P/O ([3]; conditions of pancreatic insufficiency, purified lipase, intestinal pH values typical of pancreatic insufficiency, FIG. 5): significantly higher
- yield of pancreatic lipolysis (percentage of hydrolysis) compared with PC P/O emulsion [3]: significantly higher
- activator effect in the presence of a mixture of protein plus lactose ([3]; pancreatic lipase, complex environment compared with simple emulsion): identical or even maximized
- activator effect in the presence of a mixture of protein plus lactose ([2]; BSSL, complex environment compared with simple emulsion): identical or even maximized
- yield of lipolysis by BSSL (percentage of hydrolysis) compared with PC P/O emulsion [2, 7]: significantly higher
- activator effect on different variants of BSSL (1 to 8) compared with PC P/O ([2]; normal conditions (A) or conditions of pancreatic insufficiency (B), efficacy varies with type of BSSL, FIG. 11): confirmed
- yield of lipolysis by BSSL (percentage of hydrolysis) compared with PC P/O emulsion ([2]; normal conditions, FIG. 4): significantly higher
- yield of lipolysis by BSSL (percentage of hydrolysis) compared with PC P/O and complex PC P/O ([2]; purified human BSSL, pH 7.00, bile salts 8 mM (normal) or 2 mM (pancreatic insufficiency), with or without lactose and milk proteins, FIG. 9): significantly higher
Molecule: lysophosphatidylinositol [LPI]
- effect of the dose of LPI on the yield of gastric lipolysis of the LHO emulsion ([1]; LPI 0.1, 0.4 and 0.8% of total lipids, total phospholipids 0.8% of total lipids, gastric juices of subjects, FIG. 12): increase with increasing concentrations of LPI

Molecule: lysophosphatidylserine [LPS]
- yield of pancreatic lipolysis (percentage of hydrolysis) compared with PC P/O emulsion [3]: significantly higher

- yield of lipolysis by BSSL (percentage of hydrolysis) compared with PC P/O emulsion [2, 7]: significantly higher
- yield of lipolysis by BSSL (percentage of hydrolysis) compared with PC P/O emulsion ([2]; normal conditions, FIG. 4): significantly higher
Molecule: DHA phosphatidylethanolamine [PE DHA]

B1: recombinant gastric lipase: recombinant dog gastric lipase (Merispase, Meristem) (protein, UniProt P80035 20-398, looked up)
Gastric triacylglycerol lipase: LFGKLHPTNPEVTMNISQMITYWGYPAEEYEVVTEDGYILGIDRIPYGRKNSENIGRRPVAFLQHGLLASATNWISNLPNNSLAFILADAGYDVWLGNSRGNTWARRNLYYSPDSVEFWAFSFDEMAKYDLPATIDFILKKTGQDKLHYVGHSQGTTIGFIAFSTNPKLAKRIKTFYALAPVATVKYTETLLNKLMLVPSFLFKLIFGNKIFYPHHFFDQFLATEVCSRETVDLLCSNALFIICGFDTMNLNMSRLDVYLSHNPAGTSVQNVLHWSQAVKSGKFQAFDWGSPVQNMMHYHQSMPPYYNLTDMHVPIAVWNGGNDLLADPHDVDLLLSKLPNLIYHRKIPPYNHLDFIWAMDAPQAVYNEIVSMMGTDNK
- increase of the absorption level of lipids ([4]; administered together with pancreatic extracts, in 7 of the 11 patients studied): 17%
- rate of absorption of lipids ([4]; subjects suffering from cystic fibrosis, alone, 600 mg/day, 28% without supplement): 50%

Reference: patent publication US20100196586A1, “FOODSTUFF COMPOSITION TO IMPROVE DIGESTIBILITY OF FOODSTUFF LIPIDS” (ISL-INNOVATION SANTE LIPIDES, priority 2007, published 2010)
